Measurements taken from ChEMBL document CHEMBL1201862, “PubChem BioAssay data set” (2004).
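A five-concentration, 48-hour dose response in 96-well plates underlies each endpoint, interpolated linearly between surrounding concentrations. GI50 = concentration required for 50% inhibition of growth.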 Active and inactive are the calls of the source. Cut-off read from the data, not from the text of the source: active = GI50 up to about 1.1 µM and inactive = higher.

What was measured:
Assay in all cases: NCI tumour cell line growth inhibition, 48 h
ACHN = tested on: ACHN
RPMI-8226 = tested on: RPMI-8226
OVCAR-3 = tested on: OVCAR-3
UACC-257 = tested on: UACC-257
MDA-N = tested on: MDA-N
OVCAR-8 = tested on: OVCAR-8
SW-620 = tested on: SW-620
SF-539 = tested on: SF-539
UO-31 = tested on: UO-31
MDA-MB-435 = tested on: MDA-MB-435
BT-549 = tested on: BT-549
SNB-75 = tested on: SNB-75
SR = tested on: SR
K562 = tested on: K562
HT-29 = tested on: HT-29
MOLT-4 = tested on: MOLT-4
Hs-578T = tested on: Hs-578T
PC-3 = tested on: PC-3
COLO 205 = tested on: COLO 205

SMILES	GI50 (ACHN)	GI50 (RPMI-8226)	GI50 (OVCAR-3)	GI50 (UACC-257)	GI50 (MDA-N)	GI50 (OVCAR-8)	GI50 (SW-620)	GI50 (SF-539)	GI50 (UO-31)	GI50 (MDA-MB-435)	GI50 (BT-549)	GI50 (SNB-75)	GI50 (SR)	GI50 (K562)	GI50 (HT-29)	GI50 (MOLT-4)	GI50 (Hs-578T)	GI50 (PC-3)	GI50 (COLO 205)
O=C(CCN1CCOCC1)Nc1ccc2sc3ccccc3c(=O)c2n1	35.5 µM (inactive)	28 µM (inactive)	47.9 µM (inactive)	62.2 µM (inactive)	23.3 µM (inactive)	35.9 µM (inactive)	27.4 µM (inactive)	60.5 µM (inactive)	25.8 µM (inactive)	42.4 µM (inactive)	28.7 µM (inactive)	19.6 µM (inactive)	44.3 µM (inactive)	8.49 µM (inactive)	> 100 µM (inactive)	> 10 µM (inactive)	36.4 µM (inactive)	18.2 µM (inactive)	25 µM (inactive)
CCOC(=O)c1ccc(C(=O)/C(C#N)=C2\CCCN2)[nH]1		> 100 µM (inactive)	82.2 µM (inactive)	> 100 µM (inactive)	30.1 µM (inactive)	> 100 µM (inactive)	79.4 µM (inactive)	> 100 µM (inactive)	> 100 µM (inactive)	28.8 µM (inactive)	> 100 µM (inactive)	34 µM (inactive)	19.6 µM (inactive)	52.6 µM (inactive)	72.3 µM (inactive)	48.2 µM (inactive)	> 100 µM (inactive)	67.8 µM (inactive)	> 100 µM (inactive)
COc1cc(S(=O)(=O)Nc2ccc(-c3csc(/N=C\c4ccccc4)n3)cc2)ccc1Cl	> 100 µM (inactive)	32 µM (inactive)	56.9 µM (inactive)		39 µM (inactive)	> 100 µM (inactive)	33.5 µM (inactive)	35.1 µM (inactive)	74.3 µM (inactive)	34.1 µM (inactive)	41.4 µM (inactive)	62.7 µM (inactive)	29.8 µM (inactive)	32.2 µM (inactive)	44.2 µM (inactive)	12.7 µM (inactive)	53.3 µM (inactive)	48.2 µM (inactive)	36.4 µM (inactive)
CCOC(=O)/C=C(\C(=O)OCC)n1ccc(=O)n(Cc2cn(CCCCOC(C)=O)nn2)c1=O	5.33 µM (inactive)	8.65 µM (inactive)	12.7 µM (inactive)	17.4 µM (inactive)	19.5 µM (inactive)	7.01 µM (inactive)	3.14 µM (inactive)	2.34 µM (inactive)	15.3 µM (inactive)	5 µM (inactive)	10.4 µM (inactive)	19.5 µM (inactive)	10.1 µM (inactive)	4.59 µM (inactive)	8.05 µM (inactive)	2.4 µM (inactive)	22.7 µM (inactive)	17.1 µM (inactive)	2.89 µM (inactive)
CCOc1cc(NC(C)=O)ccc1C(=O)NNS(=O)(=O)c1ccc(NC(C)=O)cc1	> 100 µM (inactive)	31.7 µM (inactive)	34.6 µM (inactive)	> 100 µM (inactive)	16.7 µM (inactive)	69.3 µM (inactive)	39.2 µM (inactive)	33.2 µM (inactive)	62.4 µM (inactive)	27.9 µM (inactive)	> 100 µM (inactive)	72.9 µM (inactive)	13.6 µM (inactive)	38 µM (inactive)	47.8 µM (inactive)	37.2 µM (inactive)	41.7 µM (inactive)	46.7 µM (inactive)	24.7 µM (inactive)
C#CCn1c(=O)ccn(/C(=C/C(=O)OCC)C(=O)OCC)c1=O	1.59 µM (inactive)	2.9 µM (inactive)	6.35 µM (inactive)	15 µM (inactive)	17.2 µM (inactive)	2.2 µM (inactive)	1.86 µM (inactive)	1.48 µM (inactive)	12.6 µM (inactive)	10.9 µM (inactive)	10.5 µM (inactive)	20.8 µM (inactive)	3.45 µM (inactive)	3.36 µM (inactive)	2.17 µM (inactive)	3.43 µM (inactive)	18.7 µM (inactive)	14.2 µM (inactive)	1.81 µM (inactive)
COc1cc([C@@H]2c3cc4c(cc3[C@@H](/N=C/c3ccc(C(=O)O[C@H]5C[C@H]6OC[C@@]6(OC(C)=O)[C@H]6[C@H](OC(=O)c7ccccc7)[C@]7(O)C[C@H](OC(=O)[C@H](OC(=O)c8ccc(/C=N/[C@@H]9c%10cc%11c(cc%10[C@@H](c%10cc(OC)c(O)c(OC)c%10)[C@H]%10C(=O)OC[C@@H]%109)OCO%11)cc8)[C@@H](NC(=O)c8ccccc8)c8ccccc8)C(C)=C([C@@H](OC(C)=O)C(=O)[C@]56C)C7(C)C)cc3)C3COC(=O)C32)OCO4)cc(C)c1O (some centres not stated)	20.8 µM (inactive)	> 50 µM (inactive)	6.85 µM (inactive)	26.2 µM (inactive)	1.82 µM (inactive)	17.9 µM (inactive)	13.4 µM (inactive)	7.23 µM (inactive)		2.33 µM (inactive)	49.7 µM (inactive)	4.25 µM (inactive)	8.02 µM (inactive)	2.19 µM (inactive)	10.9 µM (inactive)	16.3 µM (inactive)	> 46 µM (inactive)	6.58 µM (inactive)	19.6 µM (inactive)
O=C1c2c(ccc3c2CCCC3)CC12Cc1ccccc1C2	7.73 µM (inactive)	4.35 µM (inactive)	9.93 µM (inactive)	16.6 µM (inactive)	6.43 µM (inactive)	9.84 µM (inactive)	4.88 µM (inactive)	6.31 µM (inactive)	5.28 µM (inactive)	9.38 µM (inactive)	81.8 µM (inactive)	20.4 µM (inactive)	4.57 µM (inactive)	11.8 µM (inactive)	5.96 µM (inactive)	4.03 µM (inactive)	22.5 µM (inactive)	22.9 µM (inactive)	15.1 µM (inactive)
O=C1CSC2=NC3=C(COC/C3=C\c3ccc(F)cc3)C(c3ccc(F)cc3)N12 (configuration not stated)	71 µM (inactive)	14.9 µM (inactive)	49.7 µM (inactive)	> 100 µM (inactive)	41.7 µM (inactive)	55.7 µM (inactive)	46 µM (inactive)	> 100 µM (inactive)	38.4 µM (inactive)	65.2 µM (inactive)	> 100 µM (inactive)	> 100 µM (inactive)	20.7 µM (inactive)	34.4 µM (inactive)		20.6 µM (inactive)	> 100 µM (inactive)	34.8 µM (inactive)	42.8 µM (inactive)
CN(C)CCNC(=O)c1cccc2c(NC(CCCNC(=N)N)C(=O)O)c3ccccc3[n+](C)c12 (configuration not stated)	68.7 µM (inactive)	> 100 µM (inactive)	> 100 µM (inactive)	> 100 µM (inactive)	61.5 µM (inactive)	92 µM (inactive)	53.5 µM (inactive)	83.8 µM (inactive)	> 100 µM (inactive)	> 100 µM (inactive)	> 100 µM (inactive)	28.1 µM (inactive)	> 100 µM (inactive)	> 100 µM (inactive)	> 100 µM (inactive)	47.8 µM (inactive)	> 100 µM (inactive)	79.8 µM (inactive)	38.9 µM (inactive)
COC(=O)c1csc([C@@H](OC(=O)[C@H](C)[C@H](CCCC(C)(Cl)Cl)OC(=O)c2csc([C@H](O)CO)n2)C(C)C)n1	13.1 µM (inactive)	15.2 µM (inactive)	15 µM (inactive)	11 µM (inactive)	7.94 µM (inactive)	4.61 µM (inactive)	17.9 µM (inactive)	2.92 µM (inactive)	6.93 µM (inactive)	13.6 µM (inactive)	17.1 µM (inactive)	1.39 µM (inactive)	13.7 µM (inactive)	16.4 µM (inactive)	17.6 µM (inactive)	16.3 µM (inactive)	2.11 µM (inactive)	13.6 µM (inactive)	17.8 µM (inactive)
COc1ccc(OC)c2sc(N3C(=O)/C(=C/c4ccc(Cl)cc4)N=C3c3ccccc3)nc12	> 100 µM (inactive)	33.7 µM (inactive)	46.3 µM (inactive)	51.2 µM (inactive)	34.2 µM (inactive)	60.3 µM (inactive)	67.9 µM (inactive)	> 100 µM (inactive)	> 100 µM (inactive)	30.8 µM (inactive)	> 100 µM (inactive)	89.3 µM (inactive)	43.4 µM (inactive)	26.2 µM (inactive)	> 100 µM (inactive)	24.7 µM (inactive)	> 100 µM (inactive)	58.1 µM (inactive)	> 100 µM (inactive)
COc1cc(C2c3cc4c(cc3[C@@H](Nc3ccc(C#N)cc3)C3COC(=O)[C@H]23)OCO4)cc(OC)c1O (some centres not stated)	0.184 µM (active)	0.155 µM (active)	14.4 µM (inactive)	7.26 µM (inactive)	6.21 µM (inactive)	0.975 µM (active)	0.889 µM (active)	1.14 µM (inactive)	1.62 µM (inactive)	8.77 µM (inactive)	7.74 µM (inactive)	2.6 µM (inactive)	0.261 µM (active)	0.462 µM (active)	3.05 µM (inactive)	0.274 µM (active)	5.09 µM (inactive)	9.82 µM (inactive)	6.38 µM (inactive)
Nc1c2c(nc3ccccc13)-c1ccccc1NCCC2	36.6 µM (inactive)	20.2 µM (inactive)	78.2 µM (inactive)	13.6 µM (inactive)	17.5 µM (inactive)	42.2 µM (inactive)	23.4 µM (inactive)	21 µM (inactive)	25 µM (inactive)	22 µM (inactive)	50.5 µM (inactive)	43.4 µM (inactive)	17.9 µM (inactive)	23.4 µM (inactive)	23 µM (inactive)	24.6 µM (inactive)	56.5 µM (inactive)	20.4 µM (inactive)	16.8 µM (inactive)
